In patent publication US8227457B2, “Method for treatment of diseases” (DMI Acquisition Corp., priority 2009, dated 2012):

Legend:
[1] = test system: Primary human umbilical vein endothelial cells (HUVECs); assay: HUVEC cell proliferation (Celltiter 96 AQueous One Solution assay); type: cell-based; conditions: 100 μM danazol, all time points
Method: Primary human umbilical vein endothelial cells (HUVECs) and EGM-2 growth medium were obtained from Cambrex (Walkersville, Md.). The cells were passaged in medium supplemented with 2% fetal calf serum (FCS) in tissue culture flasks at 37° C. and 5% CO2. Subculturing was performed using trypsin when 60-80% confluence was obtained as specified by the supplier.
Cryopreserved ampoules of passage 2 HUVECs were thawed and plated in 96 well tissue culture plates at 5,000 cells/cm^2. […]. In short, medium was aspirated from each well and the cells were washed with 200 μl Hepes buffered saline (HBSS) from Cambrex warmed to 37° C. 100 μl diluted celltiter solution (15 μl stock+85 μl EGM-2 containing 0.1% FCS) were added to each well and incubated for an additional 4 hours. Optical density was determined by microplate reader using a 530 nm filter after blank subtraction and data presented as OD±standard deviation. The final concentration of ethanol in the wells was less then 0.2% and had no effect on cell proliferation or viability.
All data are presented as representative experiments done in triplicate. Differences between subsets were analyzed using student t-test in Microsoft Excel. P<0.05 was considered statistically significant.
[…]. The celltiter assay is based on the reduction of the assay solution by dehydrogenase enzymes to a formazan dye that directly correlates to cell number.

HUVECs [2] = assay: HUVEC tube formation assay on matrigel plugs; type: cell-based, human; conditions: 18 hours, 5% FCS
Method: To investigate the formation of capillary-like structures by HUVECs, the Angiogenesis System: Endothelial Cell Tube Formation Assay was purchased from BD Biosciences (San Jose, Calif.) and used according to the manufacturer's protocol. In brief, 100,000 HUVECs were seeded onto rehydrated matrigel plugs in 96 well tissue culture plates in the presence of 5% FCS to induce tube formation.
Endothelial cells when cultured in the presence of angiogenic substances and supplied with an extracellular matrix scaffold will differentiate into structures loosely resembling capillary vessels.

HUVECs [3] = assay: HUVEC invasion (BioCoat Matrigel Invasion Chambers); type: cell-based, human; conditions: 10 μM and 100 μM, 24 hours
Method: BioCoat Matrigel Invasion Chambers were purchased from BD Biosciences (San Jose, Calif.). Inserts were rehydrated at 37° C. with 500 μl HBSS for 2 hours prior to use in humidified incubator. Trypsinized HUVECs were washed twice with warm EGM-2 containing 0.1% FCS and added to the upper chamber of the invasion insert at 100,000 cells in a total volume of 250 μl. […]. Non-invasive cells were removed from the upper chamber with moistened cotton swabs and then the inserts were washed twice with HBSS. The inserts were then submerged in 10 μM calcein AM prepared in HBSS and incubated for 4 hours. Fluorescence was determined in a microplate reader at 485 nm excitation and 595 nm emission.
All data is presented as representative experiment done in triplicate. Differences between subsets were analyzed using student t-test in Microsoft Excel. P<0.05 was considered statistically significant.

HUVECs [4] = assay: HUVEC scratch migration assay; type: cell-based, human; conditions: 50 μM, 75 μM and 100 μM
Method: Passage 8 HUVECs, lot number 8750 (obtained from Lonza), were plated in 6-well plates (ICS BioExpress) in endothelial growth medium-2 (EGM-2) complete medium (obtained from Lonza). […] The monolayers were then “scratched” with a 1000 μl pipet tip and washed two times with warm EGM-2 medium. […] The wells were photographed again. The gaps were measured in each photograph using Adobe Photoshop software, and gap measurements are presented as the number of pixels in the gap.

[5] = test system: human retinal endothelial cells; assay: Transendothelial electrical resistance (TER), Example 4, retinal cells; type: cell-based; conditions: 1 μM, retinal endothelial cell monolayers
Method: (§1) […]. Assays were also performed in the same manner using passage 8 human brain endothelial cells and passage 8 human umbilical vein endothelial cells.
(§2) An initial TER measurement was taken for each insert using EVOM^2 voltohmmeter connected to an STX100 electrode (both from World Precision Instruments). Measurements were also taken at 24, 48, 72 and 144 hours. All data are presented as TER measurements/cm^2 of insert with TER of blank inserts subtracted.

[6] = test system: human brain endothelial cells; assay: Transendothelial electrical resistance (TER), Example 4, brain cells; type: cell-based; conditions: 1 μM, brain endothelial cell monolayers, except at the earliest time point
Method: as §1, §2

[7] = test system: human umbilical vein endothelial cells; assay: Transendothelial electrical resistance (TER), Example 4, HUVEC; type: cell-based; conditions: 1 μM, umbilical vein endothelial cell monolayers
Method: as §1, §2

Akt = Akt phosphorylation (CASE ELISA kit for AKT S473) in retinal endothelial cells; type: cell-based, human; conditions: all of the concentrations (0.5-50.0 μM)
Method: The cells were grown in a 25 cm^2 flask to near confluence in EGM-2 medium (Lonza, Walkersville, Md.) containing 2% fetal calf serum (Lonza). […] The plate was incubated at 37° C. with 5% CO2 for 24 hours. […] After this incubation, the cells were fixed immediately with 4% formaldehyde, refrigerated, and the extent of phosphorylation of Akt determined using the Akt Cellular Activation of Signaling ELISA Kit (CASE™ Kit for AKT 5473; SABiosciences, Frederick, Md.) following the manufacturer's protocols. The CASE™ Kit for AKT S473 quantifies the amount of activated (phosphorylated) Akt protein relative to total Akt protein in parallel assays using a conventional ELISA format with colorimetric detection. The Akt phosphorylation site is serine 473 and is recognized by one of the antibodies used in one of the two parallel assays to provide a measure of activated Akt protein. The other antibody used in the other parallel assay recognizes Akt to provide a measure of total Akt protein. Both primary antibodies are detected using a horseradish peroxidase-labeled secondary antibody. Addition of the manufacturer's Developing Solution for 10 minutes, followed by addition of the manufacturer's Stop Solution, produces the result which can be measured colorimetrically.

[8] = test system: human retinal endothelial cells; assay: Actin stress fiber formation (rhodamine-phalloidin F-actin staining), VEGF, Example 8; type: cell-based; conditions: for effect on VEGF-induced stress fiber pattern: then VEGF 25 ng/ml 30 minutes
Method: . […] To counter-stain for nuclei, 100 μl of a 3 μM DAPI (4,6-diamidino-2-phenylindole, dilactate (Invitrogen)) solution was added to each well. After 5 minutes, the cells were washed two times with 100 μl PBS.

VE-Cadherin = assay: VE-cadherin phosphorylation (immunoprecipitation, Pro-Q diamond / SYPRO ruby densitometry); type: cell-based, human; conditions: danazol 0.1 μM, VEGF 50 ng/ml
Method: The plates were immediately treated to lyse the cells as follows. PBS and the lysis buffer (PBS containing 1% Triton X-100 supplemented with phosphatase inhibitor solutions 1 and 2 (Sigma), protease inhibitor (Sigma) and sodium orthovanadate at a final concentration of 2 mM) were cooled to 4° C. The cells were washed two times with 5 ml of the ice cold PBS and then lysed in 500 μl of the ice cold lysis buffer. The resulting protein extracts were transferred to 1.7 ml microcentrifuge tubes, and cell debris was removed by spinning at 4° C. at 10,000 rpm for 10 minutes. Then, 450 μl of the cleared solution was transferred to tubes containing 25 μl of Protein Dynabeads (Invitrogen) coated with 10 μl C19 anti-VE cadherin polyclonal antibody (Santa Cruz Biotechnology) (coating performed following manufacturer's protocol). The extracts and beads were then incubated overnight at 4° C. on an orbital shaker to capture VE cadherin from the extracts. The beads were then washed four times with ice cold lysis buffer. To release the protein from the beads, they were heated for 10 minutes at 75° C. in SDS loading dye containing 20% reducing dye (Invitrogen).
The released proteins were separated in 4-20% polyacrylamide gels (Invitrogen) at 120 volts for 1 hour. To determine phosphorylation and total protein in the gels, Pro-Q diamond (Invitrogen) and SYPRO ruby (Invitrogen) protein staining were sequentially performed following the manufacturer's protocol. The gels were photographed and densitometry performed using a Kodak imaging station.

[9] = test system: human renal glomerular microvascular endothelial cells; assay: ECIS, Example 12, glomerular cells; conditions: danazol 1 μM, S1P 1 μM
[10] = test system: human retinal endothelial cells; assay: Actin stress fiber formation, Example 11, retinal cells
[11] = test system: human renal glomerular microvascular endothelial cells; assay: Actin stress fiber formation, Example 11, glomerular cells; conditions: danazol 1 μM with TNFα 1 ng/ml
[12] = test system: human retinal endothelial cells; assay: Actin stress fiber formation (rhodamine-phalloidin F-actin staining), TNFα, Example 7; conditions: 30 minutes
[13] = test system: human retinal endothelial cells; assay: TER of retinal endothelial cell monolayers with steroid receptor antagonists, Example 6; conditions: for effect on TER compared to the control: 0.1 μM, Example 6
[14] = test system: human retinal endothelial cells; assay: TER of retinal endothelial cell monolayers with steroid receptor antagonists and hormones, Example 10; conditions: for effect on TER compared to the control: Example 10, concentrations of Table 10
[15] = test system: human retinal endothelial cells; assay: ECIS (electric cell-substrate impedance sensing), Example 12, retinal cells
[16] = 0.1 μM hydroxyflutamide followed by 0.1 μM danazol

C#C[C@]1(O)CC[C@H]2[C@@H]3CCC4=Cc5oncc5C[C@]4(C)[C@H]3CC[C@@]21C [Danazol, 17α-pregna-2,4-dien-20-yno[2,3-d]isoxazol-17β-ol]
effect on cell proliferation [1]: complete arrest of cell proliferation
effect on tube formation (HUVECs [2]; 1 μM or 10 μM): no effect on tube formation
effect on tube formation (HUVECs [2]; 50 μM): effective inhibitor of tube formation
effect on FCS-induced cell invasion (HUVECs [3]): no effect
effect on HUVEC migration (HUVECs [4]): significantly inhibit HUVEC migration
effect on TER [5]: enhanced TER measurements
effect on TER [6]: did not appear to have much effect
effect on TER [7]: enhanced TER measurements
effect on Akt phosphorylation (Akt): caused an increase in Akt phosphorylation
effect on VEGF-induced stress fiber pattern ([8]; 0.1 μM danazol 30 minutes): made the stress fibers less pronounced and some diffuse staining appeared
F-actin staining pattern ([8]; 0.1 μM danazol alone): diffuse F-actin staining throughout the cytoplasm
effect on VEGF-induced stress fiber pattern ([8]; 1.0 μM danazol 30 minutes): fewer thick stress fibers, but focal points were seen on contact surfaces
F-actin staining pattern ([8]; 1.0 μM danazol alone): the diffuse staining persisted, but stress fibers and focal points around the perimeter of most cells were visible
effect on VEGF-induced stress fiber pattern ([8]; 10.0 μM danazol 30 minutes): strong stress fiber development with focal points
F-actin staining pattern ([8]; 10.0 μM danazol alone): no longer any diffuse staining, and stress fiber development and focal points were seen
effect on VE-cadherin phosphorylation (VE-Cadherin): caused an increase in VE-cadherin phosphorylation
time after treatment until which there was no effect on ECIS [9]: about 30 hours
effect on S1P-induced cortical actin rings ([10]; danazol 1 μM with S1P 1 μM, at 3 hours): seemed to enhance the cortical rings
effect on TNFα-induced stress fibers ([10]; danazol 1 μM with TNFα 1 ng/ml): decreased the stress fiber formation and/or the thickness of the fibers at all times
effect on TNFα-induced stress fibers [11]: decreased the stress fiber formation and the thickness of the fibers at all times
F-actin staining pattern ([12]; 0.1 μM danazol): diffuse staining throughout the cytoplasm
F-actin staining pattern ([12]; 10.0 μM danazol): stress fibers with multiple focal points
effect on TNFα-induced stress fiber development ([12]; TNFα 50 ng/ml, danazol 0.1 μM or 10 μM, LY294002 10 μM): decreased the number of cells exhibiting stress fiber development
effect on the TER reduction caused by hydroxyflutamide [13, 16]: prevented the reduction caused by hydroxyflutamide
effect on TER compared to the control [13]: increased the TER measurements
effect on the TER reduction caused by hydroxyflutamide [14, 16]: prevented the reduction caused by hydroxyflutamide
effect on TER compared to the control [14]: increased the TER measurements

C[C@]12CC[C@@H]3c4ccc(O)cc4C[C@@H](CCCCCCCCC[S+]([O-])CCCC(F)(F)C(F)(F)F)[C@H]3[C@@H]1CC[C@@H]2O (stereo partly drawn) [Fluvestrant, fluvestrant]
effect on TER compared to the control [13]: increased the TER measurements
effect on TER compared to the control [14]: essentially no effect

CC(C)(O)C(=O)Nc1ccc([N+](=O)[O-])c(C(F)(F)F)c1 [Hydroxyflutamide, hydroxyflutamide]
effect on TER compared to the control [13]: reduced the readings
effect on TER compared to the control [14]: reduced the readings

CCCCCCCCCCCCC/C=C/[C@@H](O)[C@@H](N)COP(=O)(O)O [S1P, sphingosine-1 phosphate]
time after treatment until which there was no effect on ECIS [9]: about 30 hours
start of increase of ECIS as compared to untreated cells, after treatment ([15]; S1P 1 μM alone): ≤ 15 min
persistence of increase of ECIS ([15]; danazol 1.0 μM, S1P 1 μM): about 3 hours

C[C@]12CC[C@H]3[C@@H](CCC4=CC(=O)CC[C@@]43C)[C@@H]1CC[C@@H]2O [Testosterone, testosterone]
effect on TER compared to the control [14]: reduced the readings very slightly

TNFα
F-actin staining pattern ([12]; TNFα 50 ng/ml alone): strong stress fiber development with intensely staining focal points

VEGF
F-actin staining pattern ([8]; VEGF 25 ng/ml alone, 30 minutes): strong stress fiber development
effect on VE-cadherin phosphorylation (VE-Cadherin): caused an even greater increase in VE-cadherin phosphorylation
Relative intensity - SYPRO results (total protein) (VE-Cadherin; Nil (ethanol control) 1.00): 0.84
